# From patent US10458988B2, “Biotinylated luminescent probe” (priority 2017, dated 2019)
# Columns and labels:
# firefly luciferase = target: T1, firefly luciferase (Photinus pyralis, UniProt P08659); assay: Bioluminescence spectrum of probe B-YL with firefly luciferase; type: biochemical
# T1 construct: purchased Sigma
# Description: After the synthesis of the biotinylated probe, B-YL, the probe can be evaluated with a commercially available firefly luciferase. […] The mechanism for generating bioluminescence is shown in Scheme 2.
# In a well of 96 quartz plate (500 μl), HEPES buffer (30 mM) solution (400 μl, pH=7.7) containing MgSO4 (5.0 mM), ATP (2.6 mM), DTT (3.5 mM), CoA (1.5 mM) and commercially available firefly luciferase (40 μg/ml), was prepared. The probe B-YL was then added and mixed to a final concentration (32 μM). Bioluminescence spectrum of B-YL was then taken immediately with instrument SynergyMx (BioTek, VT).
# U87-luc cells = assay: Bioluminescence imaging of luciferase-transfected brain cancer cells in vitro; type: cell-based; conditions: B-YL 100 μg/mL, L-15 medium with MgCl2 5 mM
# Description: (§1) Triplicate wells were plated with increasing numbers of either U87 cells without luciferase (a) or with luciferase (b). In each plate: Row 1, wells 1-3, no cells; wells 4-6, 1,875 cells per well. Row 2, wells 1-3, 3,750 cells per well; wells 4-6, 7,500 cells per well. Row 3, wells 1-3, 15,000 cells per well; wells 4-6, 30,000 cells per well. Row 4, wells 1-3, 60,000 cells per well. Incubation buffer, Leibovitz's L-15 medium with MgCl2 (5 mM). Each well was incubated with B-YL (100 μg/mL). Plates were imaged using an IVIS 200 In vivo Imaging System. Escalating luminescence was observed only in wells containing luciferase-expressing cells (b).
# (§2) The B-YL substrate can be incubated with the brain cancer cell line U87-luc, which was derived from the parental brain cancer cell line U87 after stable transfection with a luciferase gene. […] B-YL clearly adsorbed across the cell membrane and was oxidized by luciferase. Therefore, B-YL can be used for the detection of the cancer cells by bioluminescence.
# (§3) The EGF-B-SA-B-YL complex can be tested for the ability to target and image brain cancer cell lines that overexpress the biomarker EGFR using bioluminescence in vitro. U87 (gray hatch bars) and U87-luc (black bars) cells can be treated with free B-YL (150 μg/m L), untargeted B-SA-B-YL complex (150 μg/mL) or EGFR-targeted EGF-B-SA-B-YL complex (50-150 µg/mL). Bioluminescence were detected immediately. […]
# U87 cells = assay: Bioluminescence imaging of parental brain cancer cells without luciferase in vitro; type: cell-based
# Description: as §1, §2, §3
# T1 sequence (P08659 whole entry): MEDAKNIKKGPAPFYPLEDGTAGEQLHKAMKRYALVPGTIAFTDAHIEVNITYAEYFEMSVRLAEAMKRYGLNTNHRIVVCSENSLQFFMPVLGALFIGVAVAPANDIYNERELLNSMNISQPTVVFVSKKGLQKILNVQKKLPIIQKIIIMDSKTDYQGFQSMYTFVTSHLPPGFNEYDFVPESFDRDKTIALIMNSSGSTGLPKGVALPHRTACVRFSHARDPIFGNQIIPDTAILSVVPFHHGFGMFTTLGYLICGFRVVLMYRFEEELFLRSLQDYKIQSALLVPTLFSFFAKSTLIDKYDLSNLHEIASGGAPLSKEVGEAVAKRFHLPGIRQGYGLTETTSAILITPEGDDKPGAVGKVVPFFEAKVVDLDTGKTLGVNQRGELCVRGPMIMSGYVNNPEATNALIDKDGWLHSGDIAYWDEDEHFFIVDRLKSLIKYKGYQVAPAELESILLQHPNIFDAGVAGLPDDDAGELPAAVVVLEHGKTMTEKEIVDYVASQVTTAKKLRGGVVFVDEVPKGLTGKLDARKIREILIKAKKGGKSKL
substance,measurement,setting,value
"6-(3-N—{N-[5-(Hexahydro-2-oxo-1H-thieno[3,4-d]imidazol-4-yl)-1-oxopentyl]-, [3aS-(3aα,4β, 6aα)]}-aminoethyl-poly(ethylene glycol)21-oxyethyl-1H-1,2,3-triazol-5-yl-methylamino-oxomethyl-amino)-2-benzothiazolyl]-4,5-dihydro-,(4S)-4-thiazolecarboxylic acid [B-YL]",substrate of firefly luciferase,firefly luciferase; commercial firefly luciferase,found to be a substrate of firefly luciferase
same,bioluminescence maximum emission,"firefly luciferase; commercial firefly luciferase 40 μg/ml, B-YL 32 μM, HEPES buffer pH 7.7",590 nm
same,number of U87-luc cells at which bioluminescence signal was detected (FIG. 1b),U87-luc cells,"at least 7,500 cells per well"
same,bioluminescence activity in parental U87 cells (FIG. 1a),"U87 cells; B-YL 100 μg/mL, 0-60,000 cells per well, L-15 medium with MgCl2 5 mM",did not reveal bioluminescence activity regardless of the number of cells
same,conversion to bioluminescence photons by U87 cells (FIG. 2),U87 cells; U87 cells without luciferase,Neither of the complexes (B-SA-B-YL or EGF-B-SA-B-YL) nor free B-YL were converted to bioluminescence photons
